Data set [1] relates to Monographella nivalis (Microdochium nivale). Put plainly: Monographella nivalis (Microdochium nivale)/Liquid Culture (Foot Rot Cereals). To be noted: liquid culture, compared to untreated control. The class given is cell-based. The gist of the method:
(§1)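 First, the test compound in DMSO is placed in the wells. Next, potato dextrose broth seeded with conidia taken straight from cryogenic storage is added, and the culture is left to grow.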

For a further data set, the system named is Plasmopara viticola. Put plainly: whole plant or invertebrate. The class given is in vivo. To be noted: foliar, read-out: control of Plasmopara viticola.
Data set [2] has as its system Phaeosphaeria nodorum (Septoria nodorum). Description: Phaeosphaeria nodorum (Septoria nodorum)/Wheat/Leaf Disc Preventative (Glume Blotch). The class given is in vivo. The settings on record: Parastagonospora nodorum, foliar, wheat leaf disc preventative, compared to untreated control. The procedure, abridged: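 Wheat cv. Kanzler leaf discs on agar were sprayed with formulated compound diluted in water and inoculated with P. nodorum spores 2 days later. Discs kept at 20 °C, 75% rh, 12 h light/dark; percent disease control versus untreated scored 5–7 days after application.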

For data set [3], the system named is Thanatephorus cucumeris (Rhizoctonia solani). Description: Thanatephorus cucumeris (Rhizoctonia solani)/Liquid Culture (Foot Rot, Damping-Off). The class given is cell-based. To be noted: liquid culture, compared to untreated control. Here is the method: Mycelia fragments of a newly grown liquid culture of the fungus are directly mixed into nutrient broth (PDB potato dextrose broth). After placing a (DMSO) solution of the test compounds into a microtiter plate (96-well format), the nutrient broth containing the fungal material is added.

The subject of data set [4] is Mycosphaerella arachidis (Cercospora arachidicola). Description: Mycosphaerella arachidis (Cercospora arachidicola)/Liquid Culture (Early Leaf Spot). The class given is cell-based. The settings on record: liquid culture, compared to untreated control. The procedure, abridged: as §1
Data set [5] has as its system Glomerella lagenarium (Colletotrichum lagenarium). Description: Glomerella lagenarium (Colletotrichum lagenarium)/Liquid Culture (Anthracnose). Type of data set: cell-based. The settings on record: Colletotrichum orbiculare, liquid culture, compared to untreated control.
The test system of data set [6] is Botryotinia fuckeliana (Botrytis cinerea). Put plainly: Botryotinia fuckeliana (Botrytis cinerea)/Liquid Culture (Gray Mould). Type of data set: cell-based. The settings on record: liquid culture, compared to untreated control. The procedure: Conidia of the fungus from cryogenic storage are directly mixed into nutrient broth (Vogels broth). After placing a (DMSO) solution of test compound into a microtiter plate (96-well format), the nutrient broth containing the fungal spores is added.

Data set [7] concerns Blumeria graminis f. sp. tritici (Erysiphe graminis f. sp. tritici). Description: Blumeria graminis f. sp. tritici/Wheat/Leaf Disc Preventative (Powdery Mildew on Wheat). The settings on record: foliar, wheat leaf disc preventative, compared to untreated control. Type of data set: in vivo. The procedure, abridged: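 Wheat cv. Kanzler leaf segments on agar sprayed with formulated compound, inoculated with powdery mildew 1 day later and held at 20° C, 60% rh (24 h dark, then 12 h light/12 h dark). Percent disease control versus untreated scored 6-8 days after application.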

Another data set has as its system Phytophthora infestans. Description: whole plant or invertebrate. The class given is in vivo. To be noted: in Solanum lycopersicum, foliar, read-out: control of Phytophthora infestans.
For data set [8], the system named is Puccinia recondita f. sp. tritici. Description: Puccinia recondita f. sp. tritici/Wheat/Leaf Disc Preventative (Brown Rust). Type of data set: in vivo. To be noted: foliar, 200 ppm, wheat leaf disc preventative, compared to untreated control, read-out: control of Puccinia recondita f. sp. tritici.
The subject of data set [9] is Magnaporthe grisea (Pyricularia oryzae). Description: whole plant or invertebrate. The settings on record: foliar, read-out: control of Magnaporthe grisea. The class given is in vivo.
Data set [10] concerns Mycosphaerella graminicola (Septoria tritici). Put plainly: Mycosphaerella graminicola (Septoria tritici)/Liquid Culture (Septoria Blotch). The class given is cell-based. To be noted: Zymoseptoria tritici; 20 ppm; liquid culture; compared to untreated control. The procedure, abridged: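 Conidia from cryogenic storage mixed into potato dextrose broth and added to microtiter wells already holding DMSO solutions of test compound. Activity expressed as percentage disease control.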

The test system of another data set is Phakopsora pachyrhizi. Description: Phakopsora pachyrhizi/Soybean/Preventative (Soybean Rust). Type of data set: in vivo. The settings on record: foliar, 288 h, 200 ppm, soybean leaf disc preventative, compared to untreated control, read-out: control of Phakopsora pachyrhizi.
Data set [11] concerns Puccinia recondita f. sp. tritici. Put plainly: Puccinia recondita f. sp. tritici/Wheat/Leaf Disc Curative (Brown Rust). To be noted: foliar, wheat leaf disc curative, compared to untreated control. The class given is in vivo. The procedure, abridged:
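Curative leaf-disc test on wheat cv. Kanzler segments on agar, spore-inoculated and kept dark at 19° C, 75% rh; formulated compound in water applied 1 day after inoculation. Incubated at 19° C, 75% rh, 12 h light/12 h dark; percent disease control versus untreated scored 6-8 days after application.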

Another data set concerns Pyrenophora teres. Put plainly: Pyrenophora teres/Barley/Leaf Disc Preventative (Net Blotch). The class given is in vivo. To be noted: foliar, 200 ppm, barley leaf disc preventative, compared to untreated control, read-out: control of Pyrenophora teres. The procedure, abridged:
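Formulated compound, diluted in water, sprayed onto barley cv. Hasso leaf segments on agar; spore suspension inoculation followed 2 days after application. Results expressed as percentage disease control.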

The next data set has as its system Alternaria solani. Description: Alternaria solani/Tomato/Leaf Disc (Early Blight). The class given is in vivo. The settings on record: foliar, tomato leaf disc, compared to untreated control. The procedure:
Tomato leaf disks cv. Baby are placed on agar in multiwell plates (24-well format) and sprayed with the formulated test compound diluted in water. The leaf disks are inoculated with a spore suspension of the fungus 2 days after application. The inoculated leaf disks are incubated at 23° C./21° C. (day/night) and 80% rh (relative humidity) under a light regime of 12/12 h (light/dark) in a climate cabinet and the activity of a compound is assessed as percent disease control compared to untreated when an appropriate level of disease damage appears on untreated check disk leaf disks (5-7 days after application).

The results in this text go back to patent publication US12043600B2, “Microbiocidal compounds” (SYNGENTA CROP PROTECTION AG, priority 2018, dated 2024).

Regarding `CO/C=C(\Oc1cc(-n2cc(C3CC3)cn2)ccc1C)C(=O)OC` [Compound E-50, methyl (Z)-2-[5-(4-cyclopropylpyrazol-1-yl)-2-methyl-phenoxy]-3-methoxy-prop-2-enoate], the inhibition of growth at 20 ppm in [1], in [3], in data set [4], in data set [5], in [6] and in [10] was at least 80% each time. Besides, the pest or weed control at 200 ppm (in the data set on Plasmopara viticola; in data set [2]; in [7]; in the data set with Phytophthora infestans; in data set [8]; in [9]) was at least 80% throughout. For the same molecule, in the data set with Phakopsora pachyrhizi, the pest or weed control at 200 ppm was at least 50%.

With `CCOc1cnn(-c2ccc(C)c(O/C(=C\OC)C(=O)OC)c2)c1` [Compound E-52, methyl (Z)-2-[5-(4-ethoxypyrazol-1-yl)-2-methyl-phenoxy]-3-methoxy-prop-2-enoate], the inhibition of growth at 20 ppm in data set [1], in data set [3], in [4], in data set [5], in [6] and in data set [10] was at least 80% each time. In addition, the pest or weed control at 200 ppm was at least 80% in the data set on Plasmopara viticola; at least 80% in the data set with Phytophthora infestans; at least 80% in data set [8]; at least 80% in data set [9]; at least 50% in the data set with Phakopsora pachyrhizi.

For `CO/C=C(\Oc1cc(-n2cc(C)cn2)ccc1C)C(=O)OC` [Compound E-59, methyl (Z)-3-methoxy-2-[2-methyl-5-(4-methylpyrazol-1-yl)phenoxy]prop-2-enoate], the inhibition of growth at 20 ppm in data set [1], in data set [3], in data set [4], in [5], in data set [6] and in data set [10] was at least 80% each time. The pest or weed control at 200 ppm (with Plasmopara viticola; in [2]; in [7]; with Phytophthora infestans; in [8]; in data set [9]) was at least 80% in each case. The pest or weed control at 200 ppm in the data set on Phakopsora pachyrhizi was at least 50%.

As for `CO/C=C(\Oc1cc(C)cc(-n2ccc(C(C)C)n2)c1)C(=O)OC` [Compound E-35, methyl (Z)-2-[3-(3-isopropylpyrazol-1-yl)-5-methyl-phenoxy]-3-methoxy-prop-2-enoate], the inhibition of growth at 20 ppm in data set [1], in [3], in data set [4], in [5], in data set [6] and in data set [10] was at least 80% each time. Moreover, the pest or weed control at 200 ppm (in the data set with Plasmopara viticola; in data set [11]; in [7]; with Phytophthora infestans; in data set [8]; in data set [9]) was at least 80% each time. Besides, the pest or weed control at 200 ppm with Phakopsora pachyrhizi was at least 50%.

On to `CO/C=C(\Oc1cc(-n2cc(SC(C)C)cn2)ccc1C)C(=O)OC` [Compound E-53, methyl (Z)-2-[5-(4-isopropylsulfanylpyrazol-1-yl)-2-methyl-phenoxy]-3-methoxy-prop-2-enoate], for which the inhibition of growth at 20 ppm in [1], in [3], in data set [4], in [5], in [6] and in data set [10] was at least 80% throughout. Moreover, the pest or weed control at 200 ppm (with Plasmopara viticola; in data set [2]; in the data set on Phytophthora infestans; in [8]; in data set [9]) was at least 80% in each case.

Consider `CO/C=C(\Oc1cc(-n2ccc(C3(C)CC3)n2)ccc1C)C(=O)OC` [Compound E-82, methyl (Z)-3-methoxy-2-[2-methyl-5-[3-(1-methylcyclopropyl)pyra-zol-1-yl]phenoxy]prop-2-enoate], for which the melting point was in the range of 83 to 86 °C. Besides, the inhibition of growth at 20 ppm in data set [1] is at least 80%. The pest or weed control at 200 ppm in the data set on Plasmopara viticola was at least 80%. In [2], the pest or weed control at 200 ppm was at least 80%. The same molecule displayed an inhibition of growth at 20 ppm in data set [4] of at least 80%. In [5], this molecule came in with an inhibition of growth at 20 ppm of at least 80%. The pest or weed control at 200 ppm in the data set with Pyrenophora teres is at least 80%. Also, the inhibition of growth at 20 ppm in [6] is at least 80%. This molecule also displayed a pest or weed control at 200 ppm in the data set on Alternaria solani of at least 80%. Further, in [11], the pest or weed control at 200 ppm is at least 80%. Besides, in data set [7], the pest or weed control at 200 ppm is at least 80%. The pest or weed control at 200 ppm in the data set on Phytophthora infestans was at least 80%. Also, the pest or weed control at 200 ppm in data set [8] is at least 80%. Besides, in data set [9], the pest or weed control at 200 ppm is at least 80%. In data set [10], this molecule returned an inhibition of growth at 20 ppm of at least 80%. The pest or weed control at 200 ppm in the data set with Phakopsora pachyrhizi was at least 50%.

`CO/C=C(\Oc1cc(-n2ncc(C(C)=NO)n2)ccc1C)C(=O)OC` [Compound F-13, methyl (Z)-2-[5-[4-(N-hydroxy-C-methyl-carbonimidoyl)triazol-2-yl]-2-methyl-phenoxy]-3-methoxy-prop-2-enoate] displayed a melting point of 146 to 150 °C. In data set [1], the inhibition of growth at 20 ppm was at least 80%. The pest or weed control at 200 ppm with Plasmopara viticola was at least 80%. Further, the pest or weed control at 200 ppm in [2] was at least 80%. Besides, the inhibition of growth at 20 ppm in data set [4] was at least 80%. This molecule gave an inhibition of growth at 20 ppm in [5] of at least 80%. Besides, the pest or weed control at 200 ppm in the data set with Pyrenophora teres was at least 80%. Further, the pest or weed control at 200 ppm with Alternaria solani was at least 80%. The pest or weed control at 200 ppm in data set [11] is at least 80%. In data set [7], this molecule displayed a pest or weed control at 200 ppm of at least 80%. Moreover, in the data set with Phytophthora infestans, the pest or weed control at 200 ppm is at least 80%. Moreover, in [8], the pest or weed control at 200 ppm was at least 80%. Also, the pest or weed control at 200 ppm in data set [9] was at least 80%. In addition, the inhibition of growth at 20 ppm in data set [10] was at least 80%.

As to `C#Cc1cnn(-c2ccc(C)c(O/C(=C\OC)C(=O)OC)c2)c1` [Compound E-48, methyl (Z)-2-[5-(4-ethynylpyrazol-1-yl)-2-methyl-phenoxy]-3-methoxy-prop-2-enoate], the inhibition of growth at 20 ppm in data set [1], in [3], in data set [4], in data set [5], in data set [6] and in data set [10] was at least 80% in each case. Moreover, the pest or weed control at 200 ppm (in the data set with Plasmopara viticola; in [2]; in [11]; in data set [7]; with Phytophthora infestans; in data set [8]) was at least 80% throughout.

For orientation: inhibition of growth means the relative decrease from the control value, in per cent. Lower therefore signals a weak effect. In general, melting point refers to the temperature of the solid-liquid transition.
